According to PMC12090182, “Repurposing of the RIPK1-Selective Benzo[1,4]oxazepin-4-one Scaffold for the Development of a Type III LIMK1/2 Inhibitor” (ACS Chemical Biology, 2025):

Test system: MRC-9 cells
Assay: Multiplex high-content viability assessment
Format: cell-based
Conditions: for Cell count normalized to cells treated with DMSO control / Cell count per well / Population Fragmented Nuclei (%) / Population Healthy Nuclei (%) / Population Pyknosed Nuclei (%) / Population apoptotic cell (%) / Population cell that influence microtubule strucutre (%) / Population with increased mitochondrial mass (%) / Population with membrane disruption (%): human fibroblast
Summary of the method: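 HEK293T and U2OS cells (DMEM) and MRC-9 fibroblasts (EMEM) exposed to compounds at 1 and 10 μM. Live-cell confocal imaging of cell shape and fluorescence before and at 12, 24 and 48 h. Normalized to 0.1% DMSO; biological duplicates with SEM.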

CN1C(=O)[C@@H](N2CCc3c(nn(Cc4ccccc4)c3C(N)=O)C2=O)COc2cc(Cl)ccc21 [Compound 10, (S)-2-benzyl-6-(8-chloro-5-methyl-4-oxo-2,3,4,5-tetrahydrobenzo[b][1,4]oxazepin-3-yl)-7-oxo-4,5,6,7-tetrahydro-2H-pyrazolo[3,4-c]pyridine-3-carboxamide]
Cell count normalized to cells treated with DMSO control (1 µM, 0 h, replicate 1): 0.9542 | Cell count per well (1 µM, 0 h, replicate 1): 143 | Population Fragmented Nuclei (%) (1 µM, 0 h, replicate 1): 19.86% | Population Healthy Nuclei (%) (1 µM, 0 h, replicate 1): 56.74% | Population Pyknosed Nuclei (%) (1 µM, 0 h, replicate 1): 23.40% | Population apoptotic cell (%) (1 µM, 0 h, replicate 1): 42.42% | Population cell that influence microtubule strucutre (%) (1 µM, 0 h, replicate 1): 27.50% | Population with increased mitochondrial mass (%) (1 µM, 0 h, replicate 1): 11.25% | Population with membrane disruption (%) (1 µM, 0 h, replicate 1): 1.25% | Cell count normalized to cells treated with DMSO control (1 µM, 0 h, replicate 2): 1.071 | Cell count per well (1 µM, 0 h, replicate 2): 191 | Population Fragmented Nuclei (%) (1 µM, 0 h, replicate 2): 17.68% | Population Healthy Nuclei (%) (1 µM, 0 h, replicate 2): 56.35% | Population Pyknosed Nuclei (%) (1 µM, 0 h, replicate 2): 25.97% | Population apoptotic cell (%) (1 µM, 0 h, replicate 2): 19.15% | Population cell that influence microtubule strucutre (%) (1 µM, 0 h, replicate 2): 32.35% | Population with increased mitochondrial mass (%) (1 µM, 0 h, replicate 2): 4.90% | Population with membrane disruption (%) (1 µM, 0 h, replicate 2): 4.90% | Cell count normalized to cells treated with DMSO control (1 µM, 12 h, replicate 1): 0.9165 | Cell count per well (1 µM, 12 h, replicate 1): 138 | Population Fragmented Nuclei (%) (1 µM, 12 h, replicate 1): 13.43% | Population Healthy Nuclei (%) (1 µM, 12 h, replicate 1): 56.72% | Population Pyknosed Nuclei (%) (1 µM, 12 h, replicate 1): 29.85% | Population apoptotic cell (%) (1 µM, 12 h, replicate 1): 55.00% | Population cell that influence microtubule strucutre (%) (1 µM, 12 h, replicate 1): 31.58% | Population with increased mitochondrial mass (%) (1 µM, 12 h, replicate 1): 3.95% | Population with membrane disruption (%) (1 µM, 12 h, replicate 1): 0.00% | Cell count normalized to cells treated with DMSO control (1 µM, 12 h, replicate 2): 1.033 | Cell count per well (1 µM, 12 h, replicate 2): 172 | Population Fragmented Nuclei (%) (1 µM, 12 h, replicate 2): 18.52% | Population Healthy Nuclei (%) (1 µM, 12 h, replicate 2): 51.23% | Population Pyknosed Nuclei (%) (1 µM, 12 h, replicate 2): 30.25% | Population apoptotic cell (%) (1 µM, 12 h, replicate 2): 36.73% | Population cell that influence microtubule strucutre (%) (1 µM, 12 h, replicate 2): 48.19% | Population with increased mitochondrial mass (%) (1 µM, 12 h, replicate 2): 3.61% | Population with membrane disruption (%) (1 µM, 12 h, replicate 2): 9.64% | Cell count normalized to cells treated with DMSO control (1 µM, 24 h, replicate 1): 0.9086 | Cell count per well (1 µM, 24 h, replicate 1): 137 | Population Fragmented Nuclei (%) (1 µM, 24 h, replicate 1): 12.03% | Population Healthy Nuclei (%) (1 µM, 24 h, replicate 1): 64.66% | Population Pyknosed Nuclei (%) (1 µM, 24 h, replicate 1): 23.31% | Population apoptotic cell (%) (1 µM, 24 h, replicate 1): 64.52% | Population cell that influence microtubule strucutre (%) (1 µM, 24 h, replicate 1): 32.56% | Population with increased mitochondrial mass (%) (1 µM, 24 h, replicate 1): 8.14% | Population with membrane disruption (%) (1 µM, 24 h, replicate 1): 2.33% | Cell count normalized to cells treated with DMSO control (1 µM, 24 h, replicate 2): 1.049 | Cell count per well (1 µM, 24 h, replicate 2): 173 | Population Fragmented Nuclei (%) (1 µM, 24 h, replicate 2): 26.25% | Population Healthy Nuclei (%) (1 µM, 24 h, replicate 2): 51.25% | Population Pyknosed Nuclei (%) (1 µM, 24 h, replicate 2): 22.50% | Population apoptotic cell (%) (1 µM, 24 h, replicate 2): 47.22% | Population cell that influence microtubule strucutre (%) (1 µM, 24 h, replicate 2): 46.34% | Population with increased mitochondrial mass (%) (1 µM, 24 h, replicate 2): 3.66% | Population with membrane disruption (%) (1 µM, 24 h, replicate 2): 8.54% | Cell count normalized to cells treated with DMSO control (1 µM, 48 h, replicate 1): 0.9623 | Cell count per well (1 µM, 48 h, replicate 1): 146 | Population Fragmented Nuclei (%) (1 µM, 48 h, replicate 1): 16.91% | Population Healthy Nuclei (%) (1 µM, 48 h, replicate 1): 63.97% | Population Pyknosed Nuclei (%) (1 µM, 48 h, replicate 1): 19.12% | Population apoptotic cell (%) (1 µM, 48 h, replicate 1): 76.92% | Population cell that influence microtubule strucutre (%) (1 µM, 48 h, replicate 1): 25.29% | Population with increased mitochondrial mass (%) (1 µM, 48 h, replicate 1): 4.60% | Population with membrane disruption (%) (1 µM, 48 h, replicate 1): 1.15% | Cell count normalized to cells treated with DMSO control (1 µM, 48 h, replicate 2): 1.056 | Cell count per well (1 µM, 48 h, replicate 2): 172 | Population Fragmented Nuclei (%) (1 µM, 48 h, replicate 2): 23.95% | Population Healthy Nuclei (%) (1 µM, 48 h, replicate 2): 59.28% | Population Pyknosed Nuclei (%) (1 µM, 48 h, replicate 2): 16.77% | Population apoptotic cell (%) (1 µM, 48 h, replicate 2): 75.00% | Population cell that influence microtubule strucutre (%) (1 µM, 48 h, replicate 2): 54.55% | Population with increased mitochondrial mass (%) (1 µM, 48 h, replicate 2): 5.05% | Population with membrane disruption (%) (1 µM, 48 h, replicate 2): 7.07% | cytotoxicity (1 μM, MRC-9): no cytotoxicity | Cell count normalized to cells treated with DMSO control (10 µM, 0 h, replicate 1): 1.081 | Cell count per well (10 µM, 0 h, replicate 1): 162 | Population Fragmented Nuclei (%) (10 µM, 0 h, replicate 1): 15.72% | Population Healthy Nuclei (%) (10 µM, 0 h, replicate 1): 65.41% | Population Pyknosed Nuclei (%) (10 µM, 0 h, replicate 1): 18.87% | Population apoptotic cell (%) (10 µM, 0 h, replicate 1): 33.33% | Population cell that influence microtubule strucutre (%) (10 µM, 0 h, replicate 1): 22.12% | Population with increased mitochondrial mass (%) (10 µM, 0 h, replicate 1): 9.62% | Population with membrane disruption (%) (10 µM, 0 h, replicate 1): 0.96% | Cell count normalized to cells treated with DMSO control (10 µM, 0 h, replicate 2): 0.8971 | Cell count per well (10 µM, 0 h, replicate 2): 160 | Population Fragmented Nuclei (%) (10 µM, 0 h, replicate 2): 22.07% | Population Healthy Nuclei (%) (10 µM, 0 h, replicate 2): 49.66% | Population Pyknosed Nuclei (%) (10 µM, 0 h, replicate 2): 28.28% | Population apoptotic cell (%) (10 µM, 0 h, replicate 2): 34.15% | Population cell that influence microtubule strucutre (%) (10 µM, 0 h, replicate 2): 44.44% | Population with increased mitochondrial mass (%) (10 µM, 0 h, replicate 2): 9.72% | Population with membrane disruption (%) (10 µM, 0 h, replicate 2): 5.56% | Cell count normalized to cells treated with DMSO control (10 µM, 12 h, replicate 1): 1.162 | Cell count per well (10 µM, 12 h, replicate 1): 175 | Population Fragmented Nuclei (%) (10 µM, 12 h, replicate 1): 18.93% | Population Healthy Nuclei (%) (10 µM, 12 h, replicate 1): 60.36% | Population Pyknosed Nuclei (%) (10 µM, 12 h, replicate 1): 20.71% | Population apoptotic cell (%) (10 µM, 12 h, replicate 1): 48.57% | Population cell that influence microtubule strucutre (%) (10 µM, 12 h, replicate 1): 53.92% | Population with increased mitochondrial mass (%) (10 µM, 12 h, replicate 1): 8.82% | Population with membrane disruption (%) (10 µM, 12 h, replicate 1): 1.96% | Cell count normalized to cells treated with DMSO control (10 µM, 12 h, replicate 2): 0.8225 | Cell count per well (10 µM, 12 h, replicate 2): 137 | Population Fragmented Nuclei (%) (10 µM, 12 h, replicate 2): 27.87% | Population Healthy Nuclei (%) (10 µM, 12 h, replicate 2): 49.18% | Population Pyknosed Nuclei (%) (10 µM, 12 h, replicate 2): 22.95% | Population apoptotic cell (%) (10 µM, 12 h, replicate 2): 25.00% | Population cell that influence microtubule strucutre (%) (10 µM, 12 h, replicate 2): 60.00% | Population with increased mitochondrial mass (%) (10 µM, 12 h, replicate 2): 5.00% | Population with membrane disruption (%) (10 µM, 12 h, replicate 2): 3.33% | Cell count normalized to cells treated with DMSO control (10 µM, 24 h, replicate 1): 1.1009 | Cell count per well (10 µM, 24 h, replicate 1): 166 | Population Fragmented Nuclei (%) (10 µM, 24 h, replicate 1): 25.32% | Population Healthy Nuclei (%) (10 µM, 24 h, replicate 1): 55.06% | Population Pyknosed Nuclei (%) (10 µM, 24 h, replicate 1): 19.62% | Population apoptotic cell (%) (10 µM, 24 h, replicate 1): 54.84% | Population cell that influence microtubule strucutre (%) (10 µM, 24 h, replicate 1): 45.98% | Population with increased mitochondrial mass (%) (10 µM, 24 h, replicate 1): 10.34% | Population with membrane disruption (%) (10 µM, 24 h, replicate 1): 1.15% | Cell count normalized to cells treated with DMSO control (10 µM, 24 h, replicate 2): 0.8977 | Cell count per well (10 µM, 24 h, replicate 2): 148 | Population Fragmented Nuclei (%) (10 µM, 24 h, replicate 2): 34.56% | Population Healthy Nuclei (%) (10 µM, 24 h, replicate 2): 47.06% | Population Pyknosed Nuclei (%) (10 µM, 24 h, replicate 2): 18.38% | Population apoptotic cell (%) (10 µM, 24 h, replicate 2): 40.00% | Population cell that influence microtubule strucutre (%) (10 µM, 24 h, replicate 2): 65.63% | Population with increased mitochondrial mass (%) (10 µM, 24 h, replicate 2): 9.38% | Population with membrane disruption (%) (10 µM, 24 h, replicate 2): 1.56% | Cell count normalized to cells treated with DMSO control (10 µM, 48 h, replicate 1): 1.1403 | Cell count per well (10 µM, 48 h, replicate 1): 173 | Population Fragmented Nuclei (%) (10 µM, 48 h, replicate 1): 22.56% | Population Healthy Nuclei (%) (10 µM, 48 h, replicate 1): 61.59% | Population Pyknosed Nuclei (%) (10 µM, 48 h, replicate 1): 15.85% | Population apoptotic cell (%) (10 µM, 48 h, replicate 1): 84.62% | Population cell that influence microtubule strucutre (%) (10 µM, 48 h, replicate 1): 40.59% | Population with increased mitochondrial mass (%) (10 µM, 48 h, replicate 1): 5.94% | Population with membrane disruption (%) (10 µM, 48 h, replicate 1): 0.00% | Cell count normalized to cells treated with DMSO control (10 µM, 48 h, replicate 2): 0.9149 | Cell count per well (10 µM, 48 h, replicate 2): 149 | Population Fragmented Nuclei (%) (10 µM, 48 h, replicate 2): 33.82% | Population Healthy Nuclei (%) (10 µM, 48 h, replicate 2): 56.62% | Population Pyknosed Nuclei (%) (10 µM, 48 h, replicate 2): 9.56% | Population apoptotic cell (%) (10 µM, 48 h, replicate 2): 46.15% | Population cell that influence microtubule strucutre (%) (10 µM, 48 h, replicate 2): 61.04% | Population with increased mitochondrial mass (%) (10 µM, 48 h, replicate 2): 6.49% | Population with membrane disruption (%) (10 µM, 48 h, replicate 2): 2.60% | impact on tubulin, mitochondrial mass, and cellular permeability in healthy cells (MRC-9, 1 μM (Figure 6)): comparable to that of the 0.1% DMSO control
